The values below come from US20050033056A1, “Hydroxylated indole derivatives and uses thereof” (priority 2001, published 2005).

One series deals with CYP3A4 (Homo sapiens, UniProt P08684). Kind of series: Compound 1 metabolism / metabolite formation by recombinant CYP3A4. The class given is in vitro ADME. Further details: purchased Gentest Corp. (Woburn, Mass.); host or cells: insect cells (microsomal preparation). On the procedure:
(§1) The metabolism of Compound 1 was determined by the disappearance of Compound 1 or the appearance of Compound 1 metabolites in reaction mixtures as compared to respective controls. Compound 1 was incubated in the reconstituted in vitro reaction systems containing pooled human liver S9 fractions, microsomal preparations, or recombinant hepatic CYP forms, including CYP1A2, CYP2C9, CYP2C19, CYP2D6, CYP2E1, and CYP3A4. The reaction mixture (total volume of 250 μL) contained 0.5 mg of liver microsomal protein, 50 or 25 pmol of recombinant CYP, and Compound 1 (50-80 μM) in 50 mM Tris buffer containing 15 mM MgCl2 (pH 7.4). After incubating at 37° C. with gentle shaking for 1 minute, the reaction was initiated by adding 25 μL of NADPH solution (20 mg/mL), and was carried out for 1 hour. The reaction was terminated by quickly cooling the test tube on ice, followed by the addition of an equal volume of 100% methanol. The samples were centrifuged in a desktop centrifuge at 14,000 rpm for 5 minutes, and the supernatants were filtered through syringe filters (13 mm, 0.45 μm). The filtrates were subjected to analysis using LC/MS (ion trap) or LC/MS/MS.
1. LC/MS (LCQ ion trap mass spectrometer, Finnigan Corp., San Jose, Calif.): Hewlett Packard 1100 HPLC system (Waldbronn, Germany) consisted of a binary pump, an autosampler, a column compartment unit, and an online variable wavelength UV detector (VWD). The detector was monitored at 270 nm, which is the UVmax of Compound 1 predetermined by scanning between 225-400 nm using a photodiode array detector (PDA). The metabolites were separated on a Hewlett Packard Eclipse C18 column (150×2.1 mm). The mobile phases were 10 nmM ammonium acetate at pH 4.8 (A) and acetonitrile (B). The gradient (B) was 10% (0-6 minutes), 22% (12-22 minutes), 90% (25-30 minutes), and 10% (31 minutes and after). The flow rate was 0.25 mL/minute. Software Navigator (Version 1.2, Finnigan Corp.) was used to control the HPLC and MS and to acquire the data. […]

Another series deals with CYP2C19 (Homo sapiens, UniProt P33261). Kind of series: Compound 1 metabolism / metabolite formation by recombinant CYP2C19. Further details: purchased Gentest Corp. (Woburn, Mass.); host or cells: insect cells (microsomal preparation). It counts as in vitro ADME. On the procedure:
as §1
1. LC/MS (LCQ ion trap mass spectrometer, Finnigan Corp., San Jose, Calif.): Hewlett Packard 1100 HPLC system (Waldbronn, Germany) consisted of a binary pump, an autosampler, a column compartment unit, and an online variable wavelength UV detector (VWD). The detector was monitored at 270 nm, which is the UVmax of Compound 1 predetermined by scanning between 225-400 nm using a photodiode array detector (PDA). The metabolites were separated on a Hewlett Packard Eclipse C18 column (150×2.1 mm). The mobile phases were 10 nmM ammonium acetate at pH 4.8 (A) and acetonitrile (B). The gradient (B) was 10% (0-6 minutes), 22% (12-22 minutes), 90% (25-30 minutes), and 10% (31 minutes and after). The flow rate was 0.25 mL/minute. Software Navigator (Version 1.2, Finnigan Corp.) was used to control the HPLC and MS and to acquire the data. The MS was operated at positive electrospray ionization (ESI) with 5.2 kV ionization potential and 220° C. heated capillary temperature. The product ion spectra were generated under 24V collision energy, which was optimized for the fragmentation of Compound 1.
2. LC/MS/MS (SCIEX API2000 triple quadrupole mass spectrometer, PE Biosystem, Foster City, Calif.): The same HPLC system described above was coupled with a tandem mass spectrometer. The metabolites were separated on a Sulpelco Discovery C18 column (150×2.1 mm), and the mobile phase described previously was run at 1.0 mL/min with a 1:10 split. The gradient (B) was 20% (0-6 minutes), 60% (14-18 minutes), 95% (20-24 minutes), and 20% (25 minutes and after). The operation of the HPLC and the MS/MS was controlled by MacChrom (Version 1.6, PE Biosystem). […]

Where [1] appears, read: approximately 50 μM of Compound 1.

CYP2C19, sequence (P33261 whole entry): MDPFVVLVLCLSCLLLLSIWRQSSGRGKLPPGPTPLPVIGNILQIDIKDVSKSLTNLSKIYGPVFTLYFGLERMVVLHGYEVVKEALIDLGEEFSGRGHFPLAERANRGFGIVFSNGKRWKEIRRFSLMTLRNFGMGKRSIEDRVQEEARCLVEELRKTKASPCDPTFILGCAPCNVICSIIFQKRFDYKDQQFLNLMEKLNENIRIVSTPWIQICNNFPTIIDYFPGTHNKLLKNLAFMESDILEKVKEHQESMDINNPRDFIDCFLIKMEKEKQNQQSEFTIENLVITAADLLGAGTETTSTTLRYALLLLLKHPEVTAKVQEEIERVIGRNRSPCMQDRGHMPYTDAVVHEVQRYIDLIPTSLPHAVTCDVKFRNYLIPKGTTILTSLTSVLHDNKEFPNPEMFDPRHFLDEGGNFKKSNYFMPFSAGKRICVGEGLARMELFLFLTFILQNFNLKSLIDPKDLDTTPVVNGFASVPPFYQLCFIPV
CYP3A4, sequence (P08684 whole entry): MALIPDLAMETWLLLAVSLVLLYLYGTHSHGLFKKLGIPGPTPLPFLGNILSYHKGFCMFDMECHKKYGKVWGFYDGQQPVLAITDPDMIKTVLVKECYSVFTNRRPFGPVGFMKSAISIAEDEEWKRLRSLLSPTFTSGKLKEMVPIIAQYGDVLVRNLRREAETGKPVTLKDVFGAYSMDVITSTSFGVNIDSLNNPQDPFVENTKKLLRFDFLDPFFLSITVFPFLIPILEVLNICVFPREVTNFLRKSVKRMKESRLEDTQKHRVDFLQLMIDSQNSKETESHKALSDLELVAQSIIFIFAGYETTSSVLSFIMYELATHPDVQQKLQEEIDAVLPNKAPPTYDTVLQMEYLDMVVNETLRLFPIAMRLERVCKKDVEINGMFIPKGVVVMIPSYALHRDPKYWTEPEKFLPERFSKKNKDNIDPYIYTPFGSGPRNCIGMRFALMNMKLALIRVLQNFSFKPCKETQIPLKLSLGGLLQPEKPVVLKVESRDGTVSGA

Take `CNC(=O)Cc1ccc2ccn(C3CCN(CCc4ccccc4F)CC3)c2c1` [Compound 1, N-methyl-[1-[1-(2-fluorophenethyl)piperidine-4-yl]-1H-indol-6-yl] acetamide]: on CYP3A4 (setting [1]), the “metabolism of Compound 1 by CYP3A4 (in words)” value was “metabolized”. Further, the “Rel. Amount (%)” value on CYP3A4 (recombinant CYP3A4, estimated by UV absorbance at 270 nm, metabolite formed or Compound 1 left after 1 hour with NADPH) is recorded as 23%; at CYP2C19 (recombinant CYP2C19, estimated by UV absorbance at 270 nm, metabolite formed or Compound 1 left after 1 hour with NADPH) it was 42%. Moreover, the “metabolism of Compound 1 by CYP2C19 (in words)” value on CYP2C19 (setting [1]) is reported as “metabolized”.
